The numbers were not newly measured in paper PMC11910062 (Drug Design, Development and Therapy, 2025), which cites them from elsewhere.

The conditions of data set [1]: ref submission materials for new drug application.
The conditions of data set [2]: CLEAR Outcomes study.

Take `CC(C)(CCCCCC(O)CCCCCC(C)(C)C(=O)O)C(=O)O` [Nexletol, bempedoic acid]: the Cmax (in general, the maximum level reached in the sampled fluid or tissue) in data set [1] (180 mg dose of Nexletol) was 19950 ng/mL. The LDL-C reduction in data set [1] (180 mg of Nexletol) is listed as 26%. Further, the “4 major adverse cardiovascular events (4-MACE) reduction compared with placebo group” value in data set [2] is recorded as −13%.
